From patent publication US7259276B2, “Polyenecarboxylic acid derivatives, processes for preparing them, and their use” (Sanofi-Aventis Deutschland GmbH, priority 2002, dated 2007)

Columns and labels:
[1] = cited from earlier work
[2] = molecular target: glycosyltransferase (PBP 1b) (Escherichia coli, UniProt P02919); experiment: glycosyltransferase assay: displacement of 3H-moenomycin from the glycosyltransferase (PBP 1b)/3H-moenomycin complex; assay type: binding; conditions: displacement of 3H-moenomycin from PBP 1b; read-out: inhibitory constants (IC50 values) in the glycosyltransferase assay
From the text: Table 1 summarizes, by way of example, the inhibitory concentrations (IC50) of some compounds of the invention. A special test system was used for finding glycosyltransferase inhibitors that are specific and very effective. This system uses a glycosyltransferase/^3H-moenomycin complex, which is brought into contact with substances that are to be tested. The determination of the GT-inhibitory effect is based on the displacement of radioactively labeled moenomycin A from the glycosyltransferase (PBP 1b)/^3H-moenomycin complex, it being possible to separate the released ^3H-moenomycin, as a soluble compound, from the fixed complex and to measure the remaining radioactivity using a Geiger counter.
The assay was carried out as described by Vollmer & Höltje (Antimicrobial Agents and Chemotherapy 2000, 44, 1181-1185), except that purified penicillin-binding protein 1b (PBP 1b; 5 pM), carrying ^3H-labeled moenomycin at the glycosyltransferase site, was used in the present example instead of [3H]benzylpenicillin. ^3H-Moenomycin was obtained from moenomycin A (Kurz et al., Eur. J. Biochem., 1998, 252, 500-507) by hydrogenating it with ^3H2:
6 mg of moenomycin, dissolved in 300 μL methanol, were added to a 1 cm^3 flask, after which 2 mg of palladium-charcoal (Degussa Type E10N/D) were added. The flask was then gassed, while excluding air, with 1 cm^3 3H2; and the reaction solution was left to hydrogenate for 15 minutes. After the reaction had come to an end, the catalyst was filtered off from the reaction mixture, which was diluted to 100 mL with ethanol. This solution can be used directly for preparing the glycosyltransferase/^3H-moenomycin complex. Total radioactivity of the reaction product: 6.56 GBq (177 mCi); specific activity: 1.9 TBq/mmol. The radioactive complex was attached to SPA PVT Copper His-Tag beads. The radioactive moenomycin that was displaced by the inhibitors was measured. • SPA PVT Copper His-Tag beads: Amersham RPN 0095; • PBS: GIBCO BRL 14200-067; • BSA: Calbiochem 12657; • NOG: SIGMA O-8001 (n-octyl β-D-glucopyranoside); • Tween 20: Acros 23336-067; • Microtiter plates: Greiner Labortechnik.
The determination was carried out in microtiter plates. 10 μL of the test solution were added to the microtiter plates, followed by 10 μL of ^3H-moenomycin (25 nM, 3.1 kBq/well) and 40 μL of SPA beads loaded with PBP 1b (100 μg of beads, 45 nM enzyme). The plates were sealed and left to stand at room temperature for 8 hours. After that, the beads were separated off from the test solution by centrifuging for 3 minutes at 1300 rpm. The distribution of the radioactivity was measured in a WALLAC MicroBeta® 1450 Counter.
The inhibitory values were calculated in accordance with the formula: [1−(cpmsample−cpmlow ctr)/(cpmhigh ctr−cpmlow ctr)]×100(%).

[3] = solubility (description of the substance); assay type: physicochemical; conditions: for solubility in organic solvents: medium-polar and polar organic solvents
[4] = stability (description of the substance); assay type: physicochemical; conditions: for stability in solution depending on pH: neutral, mildly acidic, strongly acidic, strongly alkaline media
Bacillus subtilis = conditions: against Bacillus subtilis; cited from earlier work

glycosyltransferase (PBP 1b), sequence (P02919 whole entry): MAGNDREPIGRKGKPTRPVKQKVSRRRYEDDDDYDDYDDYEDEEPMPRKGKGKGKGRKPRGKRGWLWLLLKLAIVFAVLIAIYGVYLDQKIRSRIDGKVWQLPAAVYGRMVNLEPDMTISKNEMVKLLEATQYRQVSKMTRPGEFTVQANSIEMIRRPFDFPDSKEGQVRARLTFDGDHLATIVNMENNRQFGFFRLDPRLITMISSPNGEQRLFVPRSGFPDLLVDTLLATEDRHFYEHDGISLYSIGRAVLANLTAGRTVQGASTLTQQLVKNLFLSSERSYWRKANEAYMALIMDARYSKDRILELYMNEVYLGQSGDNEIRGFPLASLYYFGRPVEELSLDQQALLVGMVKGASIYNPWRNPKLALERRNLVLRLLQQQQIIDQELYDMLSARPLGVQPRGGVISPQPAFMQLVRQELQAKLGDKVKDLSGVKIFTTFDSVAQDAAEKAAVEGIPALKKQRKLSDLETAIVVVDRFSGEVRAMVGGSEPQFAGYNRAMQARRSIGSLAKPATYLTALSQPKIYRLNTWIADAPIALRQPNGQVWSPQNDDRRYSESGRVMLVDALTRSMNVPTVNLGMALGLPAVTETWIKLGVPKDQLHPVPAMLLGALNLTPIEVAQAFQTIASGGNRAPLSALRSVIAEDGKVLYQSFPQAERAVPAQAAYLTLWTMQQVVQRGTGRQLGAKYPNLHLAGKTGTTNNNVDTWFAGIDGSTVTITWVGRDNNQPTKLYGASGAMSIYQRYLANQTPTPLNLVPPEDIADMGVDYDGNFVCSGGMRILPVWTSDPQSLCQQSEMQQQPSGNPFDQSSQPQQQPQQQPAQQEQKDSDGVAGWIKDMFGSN

Molecule	absorption from the gastrointestinal tract [1]	IC50 [2]	solubility in organic solvents [3]	solubility in water [3]	sensitivity to light and air [4]	stability in solution depending on pH [4]	antibiotic effect (Bacillus subtilis)
moenomycin	not absorbed from the gastrointestinal tract						
O=C(O)/C=C/C=C/C=C\c1ccccc1/C=C/C=C/C(=O)O [serpentemycin B]		0.1 µM	soluble in medium-polar and polar organic solvents	not particularly soluble in water	sensitive to light and air	stable in neutral and mildly acidic media, but unstable in strongly acidic and strongly alkaline solution	
C/C=C/C=C\C=C\C=C/c1ccccc1/C=C/C=C/C(=O)O [serpentene, reference compound]		18 µM					weak antibiotic effect
CC(O)C(O)/C=C/C=C/C=C/c1ccccc1/C=C/C=C/C(=O)O (stereo not drawn) [serpentemycin D]		19 µM	soluble in medium-polar and polar organic solvents	not particularly soluble in water	sensitive to light and air	stable in neutral and mildly acidic media but unstable in strongly acidic and strongly alkaline solution	
O=C(O)/C=C/C=C\C=C\C=C/c1ccccc1/C=C/C=C/C(=O)O [serpentemycin A]		0.2 µM	soluble in medium-polar and polar organic solvents	not particularly soluble in water	sensitive to light and air	stable in neutral and mildly acidic media but unstable in strongly acidic and strongly alkaline solution	
